According to EP3932918A1, “EUTECTIC CRYSTAL FORMED BY APIXABAN AND CARBOXYLIC ACID, AND PREPARATION METHOD THEREFOR” (Zhejiang Tianyu Pharmaceutical Co., Ltd., priority 2019, dated 2021):

Assay: Dissolution rate test of Apixaban/carboxylic acid co-crystal (paddle method, Chinese Pharmacopoeia guidelines; equilibrium solubility in dissolution medium)
Format: physicochemical
Conditions: relative to Apixaban; dissolution medium 0.1mol/L hydrochloric acid, 37±0.5°C, paddle method 100rpm, 900ml, 500 mg sample powder
Procedure: Test Example 1: Dissolution rate test of Apixaban/carboxylic acid co-crystal
According to the dissolution rate test guidelines in the current Chinese Pharmacopoeia, a dissolution rate experiment was designed to respectively investigate the dissolution rates of the five Apixaban/carboxylic acid co-crystals prepared by the present invention. The specific scheme is as follows:
Table 6 Dissolution equipment and parameters
0.1mol/L hydrochloric acid solution: 9ml of hydrochloric acid was added into 1000ml of water and stirred well.
After the dissolution conditions were reached, 500 mg of sample powder were weighed and put into a dissolution cup, rotated, and immediately counted the time, after 1, 2, 3, 4, 6, 8, 10, 12, 14, 16, 18, 20, 22 and 24 hours, sampled with a sampling needle equipped with a 10µm polymeric polyethylene filter membrane, and filtered on-line through a 0.45µm polyvinylidene fluoride (PVDF) filter membrane.

Substance	dissolution rate (times that of Apixaban) [times]
Apixaban/D-malic acid co-crystal [crystal form II]	1.44
Apixaban/malonic acid co-crystal [crystal form I]	1.4
